Measured values published in patent US20250034139A1, “AMINE COMPOUNDS HAVING ANTI-INFLAMMATORY, ANTIFUNGAL, ANTIPARASITIC, AND ANTICANCER ACTIVITY” (PHARMA CINQ, LLC, priority 2013, published 2025).
≈ marks a conversion by molar mass, not a printed value. Where two headings read alike, the source gives them in different places.

Tests used:
[1] = test system: THP-1 cells; test: Example D: LPS-triggered THP-1 cell death assay, acute/5-hour and chronic/48-hour; type: cell-based, Human; settings: for Viable cell percent change, Chronic/48-hour, Mean: 10 ng/ml LPS, 0.1 μM test compound; for activity relative to AC in the LPS-triggered THP-1 cell death assay, in words: 0.1 μM, 5-hour and 48-hour time points
Protocol: Compounds of the invention were tested at 0.1 μM versus AC in the LPS-triggered THP-1 cell death assay. Both acute/5-hour and chronic/48-hour phases of cell death were assessed. Compounds were screened in batches with DMSO as the negative control and AC as the high activity control.

[2] = test system: Cryptococcus neoformans (serotype A); test: Example L: Cryptococcus neoformans (serotype A) growth inhibition; type: cell-based; settings: Cryptococcus neoformans; for MIC: read-out: MIC, uM (concentration for maximum - 99% of inhibition)
Protocol: Cryptococcus neoformans (serotype A) were plated in 96 well plates with 144 μl/well of 5×10e5 CFU/ml in YPD growth medium. Diluted compounds were then added to each well with concentration ranged from 0.05 to 10 μM as final concentration in duplicates. The plates were inoculated at 30° C. Two readings of OD at 600 nm were measured after 18 hr and […] treatments.
C12-imidazol had relative weak activity against Cryptococcus serotype A at low concentration. Data plotted was based on 26 hour reading because 18 hour reading was too low.
• 1. Pick a single colony of Cryptococcus from the Sabouraud Dextrose agar plate using the inoculum loop and inoculate into a 125 ml flask containing 25 ml of YPD growth medium • 2. Incubate at 30° C. with shaking at 220 rpm for 24 hours with loosen lid to allow air in and facilitates growth. • 3. Examine an aliquot of the culture under a microscope for yeast cell morphology and lack of bacterial contamination. • 4. Dilute the overnight culture with YPD medium at 1:100 dilution and count the number of cells as 8×10^6 cfu/ml. • 5. Make a final concentration of cells suspension at 5×10^5 cfu/ml in YPD medium after the stock culture had been stored at 4° C. for 3 days. • 6. Plate 144 μl/well of 5×10^5 cfu/ml cell suspension on 96-well plates. Part-II: Cryptococcus Growth Inhibition Testing with Compounds • 1. From 10 mM DMSO stock solutions, make serial dilutions of compounds to 0.0013, 0.0025, 0.0125, 0.025, 0.05, 0.125 and 0.25 mM solution • 2. Add 6 ul each of diluted compound solutions per well in duplicates. The final concentrations were 0, 0.05, 0.1, 0.5, 1.0, 2.0, 5.0 and 10 micromolar. • 3. Incubated all plates at 30° C. overnight with 175 rpm shaking. • 4. Read absorbance at OD600 after 18 and 26 hours for each plate. • 5. Calculated the % inhibition and IC50 of each compound against the untreated cell.

[3] = test system: Trichophyton rubrum; test: Example J: Trichophyton rubrum growth inhibition, scoring by eye; type: cell-based; settings: Trichophyton rubrum, 144 h; 6 days at 30° C., tested 6 to 40 μM; read-out: MIC, μM (maximum inhibition concentration, scoring by eye)
Outline: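 Filtered T. rubrum suspension from PDA plates (grown 4 days, 30 °C) treated with diluted compounds in triplicate, incubated 6 days at 30 °C. Plates imaged; MIC scored by eye.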

[4] = test system: S. cerevisiae; test: Example I: Saccharomyces cerevisiae growth inhibition (OD 600 nm); type: cell-based; settings: Saccharomyces cerevisiae, 18 hour incubation at 30° C., OD 600 nm, XLfit; for IC50: read-out: IC50, uM (50% inhibition of fungal growth); for MIC: read-out: MIC, uM (99% of inhibition of fungal growth)
[5] = test system: PC-3 prostate cancer cells; test: Example T: sensitisation of PC-3 cells to doxorubicin, oxaliplatin, paclitaxel or vincristine, Wst1; type: cell-based, human; settings: PC-3 cells, 72 hours; for viability at 0.4 µM: compound 0.4 μM alone; for Doxorubicin 3.5 μM: percent cell survival / Oxaliplatin 100 μM: percent cell survival / Paclitaxel 50 μM: percent cell survival / Vincristine 100 nM: percent cell survival: chemotherapy agent alone normalized to 100%
[6] = read-out: IC50, uM (concentration for 50% of inhibition), OD of 26 hour reading, 30° C., XLfit
[7] = OD of 26 hour reading, 30° C., XLfit
[8] = Homo sapiens, Wst1, vehicle = 100, read-out: No Chemo: percent cell survival
[9] = compound 0.4 μM + doxorubicin 3.5 μM
[10] = compound 0.4 μM + oxaliplatin 100 μM
[11] = compound 0.4 μM + paclitaxel 50 μM
[12] = compound 0.4 μM + vincristine 100 nM
[13] = Macrophage, direct inhibition, values of the earlier study (Table 25), read-out: IC50 value (μM) for inhibition of fungal growth, No macrophages

Structure (SMILES)	Viable cell percent change, Chronic/48-hour, Mean [1] [%]	activity relative to AC in the LPS-triggered THP-1 cell death assay, in words [1]	IC50 [2, 6] [µM]	MIC [2, 7] [µM]	MIC [3] [µM]	IC50 [4] [µM]	viability at 0.4 µM [5, 8] [%]	Doxorubicin 3.5 μM: percent cell survival [5, 9] [%]	Oxaliplatin 100 μM: percent cell survival [5, 10] [%]	Paclitaxel 50 μM: percent cell survival [5, 11] [%]	Vincristine 100 nM: percent cell survival [5, 12] [%]	IC50 [2, 13] [µM]	MIC [4] [µM]	viability at 2.5 µM ([5]; Homo sapiens, compound 2.5 μM alone, Wst1, vehicle = 100, read-out: No Chemo: percent cell survival) [%]	Doxorubicin 3.5 μM: percent cell survival ([5]; compound 2.5 μM + doxorubicin 3.5 μM) [%]	Oxaliplatin 100 μM: percent cell survival ([5]; compound 2.5 μM + oxaliplatin 100 μM) [%]	Paclitaxel 50 μM: percent cell survival ([5]; compound 2.5 μM + paclitaxel 50 μM) [%]	Vincristine 100 nM: percent cell survival ([5]; compound 2.5 μM + vincristine 100 nM) [%]
COc1ccc(OCCCCCCCCNc2ncnc3ccccc23)cc1 [AE, N-[8-(4-Methoxyphenoxy)octyl]quinazolin-4-amine]	4.11	equivalent activity to AC at both the 5-hour and 48-hour time points	0.54	14.7 (≈ 5.59 µg/mL)	6 (≈ 2.28 µg/mL)	–	–	–	–	–	–	–	–	–	–	–	–	–
CCCCCCOc1cccc(CNc2ncnc3ccccc23)c1 [AK, N-[3-(Hexyloxy)benzyl]quinazolin-4-amine]	–	equivalent activity to AC at both the 5-hour and 48-hour time points	0.25	19.5 (≈ 6.54 µg/mL)	18 (≈ 6.04 µg/mL)	23.5	–	–	–	–	–	–	–	–	–	–	–	–
CCCCOCCCCCCCCCCNc1ccnc2ccccc12 [AM, N-(10-Butoxydecyl)quinolin-4-amine]	–	more active than AC at the chronic/48-hour time point	1.57	10.5 (≈ 3.75 µg/mL)	12 (≈ 4.28 µg/mL)	13.4	58.5	24.7	25.4	54.8	26	1.57	18.9 (≈ 6.73 µg/mL)	–	–	–	–	–
CCCCCCOCCCCCCCCNc1ccnc2cc(Cl)ccc12 [AW, 7-Chloro-N-[8-(hexyloxy)octyl]quinolin-4-amine]	–	–	1.74	13.8 (≈ 5.38 µg/mL)	6 (≈ 2.35 µg/mL)	9.73	38.2	59.5	70	51.3	33.6	–	10.2 (≈ 4 µg/mL)	–	–	–	–	–
c1ccc(Oc2cccc(CNc3ncnc4ccccc34)c2)cc1 [BM, N-(3-Phenoxybenzyl)quinazolin-4-amine]	29.97	more active than AC at the chronic/48-hour time point	0.69	17.5 (≈ 5.73 µg/mL)	18 (≈ 5.89 µg/mL)	30.6	–	–	–	–	–	0.69	50.5 (≈ 16.5 µg/mL)	–	–	–	–	–
CCCCCCOc1cccc(CNc2ccnc3ccccc23)c1 [Compound AC, N-[3-(Hexyloxy)benzyl]quinolin-4-amine]	–	–	–	12.6 (≈ 4.2 µg/mL)	18 (≈ 6.02 µg/mL)	27.7	61.5	32.8	30	14	34.1	1.15	47.7 (≈ 15.9 µg/mL)	–	–	–	–	–
CCCCCCCCCCNc1ccnc2ccccc12 [Compound AG, N-(Decyl)quinolin-4-amine]	–	more active than AC at the chronic/48-hour time point	2.14	11.4 (≈ 3.23 µg/mL)	18 (≈ 5.12 µg/mL)	19.4	–	–	–	–	–	–	24.4 (≈ 6.93 µg/mL)	18.4	21.1	27.1	21.8	17.1
CCCCCCCCCCNc1ncnc2ccccc12 [Compound AH, N-(Decyl)quinazolin-4-amine]	–	more active than AC at the chronic/48-hour time point	0.39	12 (≈ 3.43 µg/mL)	6 (≈ 1.71 µg/mL)	–	–	–	–	–	–	0.39	–	–	–	–	–	–
CCCCCCOCCCCCCCCCCNc1ccnc2ccccc12 [Compound AL, N-[10-(Hexyloxy)decyl]quinolin-4-amine]	19.14	equivalent activity to AC at both the 5-hour and 48-hour time points	3.01	10.5 (≈ 4.03 µg/mL)	12 (≈ 4.62 µg/mL)	9.67	61.6	21.9	21.9	51.8	28.1	–	10.5 (≈ 4.03 µg/mL)	–	–	–	–	–
CCCCCCOCCCCCCCCNc1ccnc2c(Cl)cccc12 [Compound AX, 8-Chloro-N-[8-(hexyloxy)octyl]quinolin-4-amine]	18.20	–	0.91	17.3 (≈ 6.76 µg/mL)	6 (≈ 2.35 µg/mL)	19.6	31.2	57.9	49.5	26.7	31.5	–	19.9 (≈ 7.79 µg/mL)	–	–	–	–	–
